Assay [1] concerns the target T1, human TLR2 (Pam3CSK4, TLR1/2 agonist) in HEK-Blue hTLR2 cells (Homo sapiens, UniProt O60603).
T1 construct: host or cells: HEK-Blue hTLR2 (HEK-293)
Nature of the assay: HEK-Blue hTLR2 antagonism assay (SEAP reporter) with Pam3CSK4 as agonist. The note with it: 2 h compound pre-incubation, approx. 3×EC50 Pam3CSK4, 18 h, SEAP OD 655 nm, background subtracted. Format: cell-based. Here is the method: (§1) Synthetic diacylated lipoprotein (Pam2CSK4, TLR2/6 agonist) and synthetic triacylated lipoprotein (Pam3CSK4, TLR1/2 agonist) were obtained from InvivoGen and were dissolved in endotoxin-free water to a concentration 1 mg/mL, vortexed until complete solubilization, and stored in aliquots at −20° C. Prior to addition to cells, an aliquot of the dissolved ligand was vortexed shortly and then was diluted in medium to 25 ng/mL Pam2CSK4 or 1000 ng/mL Pam3CSK4. The EC50 of the agonists for each assay run was determined by using 3-fold dilutions of each agonist from the following starting concentrations: 5 ng/mL for Pam2CSK4, and 200 ng/mL for Pam3CSK4.
(§2) Test compounds were solubilized fresh to 10-20 mM stocks in DMSO and sonicated for 5-10 minutes in a water bath sonicator. Serial dilutions were prepared in DMSO, and then diluted in medium. The final concentration of DMSO used in the assay was 1%.
(§3) HEK-Blue hTLR2 reporter cells (InvivoGen) are HEK-293 cells stably expressing both the human TLR2 gene and a secreted embryonic alkaline phosphatase (SEAP) reporter construct downstream of NFκB promotor sites. HEK-Blue hTLR2 reporters were cultured according to manufacturer's protocol using Dulbecco's Modified Eagle Medium (DMEM; Gibco) containing 1× GlutaMax (Gibco), 10% heat-inactivated Fetal Bovine Serum (Gibco), Pen-Strep (50 U/mL penicillin, 50 μg/mL streptomycin, Gibco), 100 μg/mL Normocin (InvivoGen), and the selective antibiotic, 1× HEK-Blue Selection (InvivoGen). Quanti-Blue reagent (InvivoGen) for detection and quantification of secreted alkaline phosphatase was dissolved in 100 mL of endotoxin-free water, warmed to 37° C. for 30 minutes and then filtered using a 0.2 μm membrane.
(§4) On day 1, 50 μL of each test compound dilution in duplicates or a vehicle control was added to each well of a 96-well plate followed by addition of 150 μL of HEK-Blue hTLR2 cell suspension (1×10^5 cells/well) and incubated at 37° C./5% CO2 for 2 h. Next, 50 μL of an approximate 3×EC50 concentration of each agonist (Pam2CSK4 or Pam3CSK4) was added to the wells containing test compounds or the vehicle control. The plates were then incubated at 37° C./5% CO2 for 18 h. For each assay run, non-treated HEK-Blue hTLR2 cells were treated with serial dilutions of agonists to determine EC50 values for the respective run.
(§5) On day 2, secreted alkaline phosphatase (SEAP) activity was detected in cell culture supernatants. In brief, 20 μL was collected from each well and transferred to a 96-well plate. Next, 200 μL of Quanti-Blue detection reagent was added to each well. Plates were incubated at room temperature for 15 min and SEAP activity was assessed by spectrophotometer OD reading at 655 nm. […] The activities of the compounds against Pam2CSK4 and Pam3CSK4 are presented as IC50 values for the response from cells treated with agonists with the background signal subtracted.

Assay [2] has as its target T2, human TLR2 (Pam2CSK4, TLR2/6 agonist) in HEK-Blue hTLR2 cells (Homo sapiens, UniProt O60603).
T2 construct: host or cells: HEK-Blue hTLR2 (HEK-293)
Nature of the assay: HEK-Blue hTLR2 antagonism assay (SEAP reporter) with Pam2CSK4 as agonist. Format: cell-based. The note with it: 2 h compound pre-incubation, approx. 3×EC50 Pam2CSK4, 18 h, SEAP OD 655 nm, background subtracted. The protocol: as §1, §2, §3, §4, §5

Some results are limits rather than exact numbers.

T1 sequence (O60603 19-784 limits assumed): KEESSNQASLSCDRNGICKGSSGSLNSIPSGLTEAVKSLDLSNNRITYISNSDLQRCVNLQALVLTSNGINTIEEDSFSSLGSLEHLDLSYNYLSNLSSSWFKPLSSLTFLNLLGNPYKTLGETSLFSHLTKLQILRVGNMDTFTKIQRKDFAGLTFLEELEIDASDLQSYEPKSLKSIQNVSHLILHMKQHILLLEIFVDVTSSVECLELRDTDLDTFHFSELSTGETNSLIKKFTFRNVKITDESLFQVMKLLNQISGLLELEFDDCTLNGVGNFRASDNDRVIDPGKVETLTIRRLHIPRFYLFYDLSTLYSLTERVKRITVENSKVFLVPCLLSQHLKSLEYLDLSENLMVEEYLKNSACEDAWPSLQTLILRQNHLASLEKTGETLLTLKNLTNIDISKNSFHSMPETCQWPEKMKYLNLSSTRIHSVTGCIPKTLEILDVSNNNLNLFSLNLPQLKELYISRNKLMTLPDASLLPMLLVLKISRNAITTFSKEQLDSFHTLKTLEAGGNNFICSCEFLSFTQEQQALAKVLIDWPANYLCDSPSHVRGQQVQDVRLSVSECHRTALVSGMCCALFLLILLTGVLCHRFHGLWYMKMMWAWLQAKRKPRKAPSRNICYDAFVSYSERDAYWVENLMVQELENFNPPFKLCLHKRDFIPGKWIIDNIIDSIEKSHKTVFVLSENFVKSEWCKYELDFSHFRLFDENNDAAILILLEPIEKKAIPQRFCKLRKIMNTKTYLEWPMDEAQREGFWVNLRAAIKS
T2 sequence (O60603 19-784 limits assumed): as above

A word on the IC50: it is the concentration that gives 50% inhibition. Low readings indicate inhibition by little substance, high ones a need for much substance. With `O=Cc1cc(/C=C/c2cccc(C(F)(F)F)c2)cc(F)c1O` [compound 11, (E)-3-fluoro-2-hydroxy-5-(3-(trifluoromethyl)styryl)benzaldehyde], the IC50 in assay [1] came out at 1 µM; in assay [2], 1.1 µM.

`O=Cc1cc(/C=C/c2ccc3ncccc3c2)cc(F)c1O` [compound 59, (E)-3-fluoro-2-hydroxy-5-(2-(quinolin-6-yl)vinyl)benzaldehyde]: the IC50 in assay [1] turned out to be 2.6 µM; in assay [2], 4.1 µM.

Consider `O=Cc1cc(/C=C/c2ccncc2)cc(F)c1O` [compound 30, (E)-3-fluoro-2-hydroxy-5-(2-(pyridin-4-yl)vinyl)benzaldehyde], for which the IC50 amounted to 18.8 µM in assay [1] and 20.6 µM in assay [2].

On to `COc1ccc(/C=C/c2cc(OC)c(O)c(C(C)=O)c2)cc1` [compound 9, (E)-1-(2-hydroxy-3-methoxy-5-(4-methoxystyryl)phenyl)ethan-1-one], for which the IC50 in assay [1] and in assay [2] was greater than 100 µM in each case.

For the compound `CCN(CC)c1ccc(/C=C/c2cc(F)c(O)c(C=O)c2)cc1` [compound 64, (E)-5-(4-(diethylamino)styryl)-3-fluoro-2-hydroxybenzaldehyde], the half-maximal inhibitory concentration (IC50) is 0.5 µM in assay [1] and 1.1 µM in assay [2].

As to `COc1cc(/C=C\c2ccc(N3CCOCC3)cc2)cc(C=O)c1O` [compound 41, (Z)-2-hydroxy-3-methoxy-5-(4-morpholinostyryl)benzaldehyde], the IC50 worked out at 29.8 µM in assay [1] and 35.1 µM in assay [2].

For the compound `CCO/N=C/c1cc(/C=C/c2ccc(N3CCCC3)cc2)cc(F)c1O` [compound 89, (E)-3-fluoro-2-hydroxy-5-((E)-4-(pyrrolidin-1-yl)styryl)benzaldehyde O-ethyl oxime], the IC50 came out at 29.6 µM in assay [1] and 29.5 µM in assay [2].

For `COc1cc(/C=C/c2ccc(C(F)(F)F)cc2)cc(C=O)c1O` [compound 8, (E)-2-hydroxy-3-methoxy-5-(4-(trifluoromethyl)styryl)benzaldehyde], the IC50 in assay [1] was 5.5 µM; in assay [2] it was 6.3 µM.

As to `C[N+]1([O-])CCN(/N=C/c2cc(/C=C/c3ccc(N4CCCC4)cc3)cc(F)c2O)CC1` [compound 85, 4-(((E)-3-fluoro-2-hydroxy-5-((E)-4-(pyrrolidin-1-yl)styryl)benzylidene)amino)-1-methylpiperazine 1-oxide], the IC50 turned out to be 1.9 µM in assay [1] and 4.5 µM in assay [2].

Turning to `COc1cc(/C=C/C2CCN(C(=O)OC(C)(C)C)CC2)cc(C=O)c1O` [compound 27, tert-butyl (E)-4-(3-formyl-4-hydroxy-5-methoxystyryl)piperidine-1-carboxylate], the IC50 in assay [1] came out at 7.7 µM; in assay [2], 4.4 µM.

As to `O=Cc1cc(/C=C/c2cccc(N3CCOCC3)c2)cc(F)c1O` [compound 45, (E)-3-fluoro-2-hydroxy-5-(3-morpholinostyryl)benzaldehyde], the IC50 came to 6.7 µM in assay [1] and 5 µM in assay [2].

Take `O=Cc1c(O)cc(/C=C/c2ccc(N3CCCC3)cc2)cc1F` [compound 53, (E)-2-fluoro-6-hydroxy-4-(4-(pyrrolidin-1-yl)styryl)benzaldehyde]: the IC50 in assay [1] came to 1.5 µM; in assay [2], 1.3 µM.

For the compound `O=Cc1cc(/C=C/c2ccc3c(c2)CCCO3)cc(F)c1O` [compound 68, (E)-5-(2-(chroman-6-yl)vinyl)-3-fluoro-2-hydroxybenzaldehyde], the IC50 stood at 1.3 µM in assay [1] and 1.6 µM in assay [2].

For `Oc1c(F)cc(/C=C/c2ccc(N3CCCC3)cc2)cc1/C=N/N1CCN(C2CC2)CC1` [compound 92, 2-((E)-((4-cyclopropylpiperazin-1-yl)imino)methyl)-6-fluoro-4-((E)-4-(pyrrolidin-1-yl)styryl)phenol], the IC50 came to 32.3 µM in assay [1] and 26.6 µM in assay [2].

With `O=Cc1c(O)cc(/C=C/c2ccc(N3CCCCC3)cc2)cc1F` [compound 71, (E)-2-fluoro-6-hydroxy-4-(4-(piperidin-1-yl)styryl)benzaldehyde], the IC50 in assay [1] was 2.5 µM; in assay [2] it was 13.7 µM.

Regarding `O=Cc1cc(/C=C/c2ccc(N3CCOCC3)cc2)cc(F)c1O` [compound 42, (E)-3-fluoro-2-hydroxy-5-(4-morpholinostyryl)benzaldehyde], the IC50 was determined as 4.5 µM in assay [1] and 3.4 µM in assay [2].

On to `COc1cc(/C=C/c2ccc3ccccc3c2)cc(C=O)c1O` [compound 32, (E)-2-hydroxy-3-methoxy-5-(2-(naphthalen-2-yl)vinyl)benzaldehyde], for which the values for the IC50 in assay [1] and in assay [2] were 1 µM and 1.1 µM, respectively.

`CC(C)(C)OC(=O)N1CCN(/N=C/c2cc(/C=C/c3ccc(N4CCCC4)cc3)cc(F)c2O)CC1` [compound 95, tert-butyl 4-(((E)-3-fluoro-2-hydroxy-5-((E)-4-(pyrrolidin-1-yl)styryl)benzylidene)amino)piperazine-1-carboxylate]: the results for the IC50 in assay [1] and in assay [2] were 3.6 µM and 4.4 µM, respectively.

Turning to `COc1cc(-c2cc3c(s2)CCN(CC2CC2)C3)cc(C=O)c1O` [compound 17, 5-(5-(cyclopropylmethyl)-4,5,6,7-tetrahydrothieno[3,2-c]pyridin-2-yl)-2-hydroxy-3-methoxybenzaldehyde], the IC50 in assay [1] was determined as 2.1 µM; in assay [2], 2 µM.

Turning to `COc1ccc(/C=C/c2cc(F)c(O)c(C=O)c2)cc1` [compound 10, (E)-3-fluoro-2-hydroxy-5-(4-methoxystyryl)benzaldehyde], the results for the IC50 in assay [1] and in assay [2] were 3.8 µM and 4.6 µM, respectively.

With `Oc1c(F)cc(/C=C/c2ccc(N3CCCC3)cc2)cc1/C=N/N1CCNCC1` [compound 96], the IC50 in assay [1] was 1.3 µM; in assay [2], 3.2 µM.

As for `COc1cc(/C=C/c2ccc(N3CCCC3)cc2)cc(C=O)c1O` [compound 48, (E)-2-hydroxy-3-methoxy-5-(4-(pyrrolidin-1-yl)styryl)benzaldehyde], the IC50 in assay [1] amounted to 0.6 µM; in assay [2], 1 µM.

As for `COc1cc(/C=C/c2ccc(N3CCCCC3)cc2)cc(C=O)c1O` [compound 69, (E)-2-hydroxy-3-methoxy-5-(4-(piperidin-1-yl)styryl)benzaldehyde], the IC50 in assay [1] was determined as 0.6 µM; in assay [2], 0.7 µM.

In the case of `COc1cc(/C=C/c2ccc(F)cc2F)cc(C=O)c1O` [compound 6, (E)-5-(2,4-difluorostyryl)-2-hydroxy-3-methoxybenzaldehyde], the IC50 in assay [1] was found to be 2.3 µM; in assay [2] it was 2.5 µM.

As for `O=Cc1cc(/C=C/c2ccc(N3CCCC3)nc2)cc(F)c1O` [compound 86, (E)-3-fluoro-2-hydroxy-5-(2-(6-(pyrrolidin-1-yl)pyridin-3-yl)vinyl)benzaldehyde], the IC50 in assay [1] worked out at 4.1 µM; in assay [2], 3.8 µM.

Take `COc1cc(/C=C/c2ccc(F)cc2)cc(C=O)c1O` [compound 7, (E)-5-(4-fluorostyryl)-2-hydroxy-3-methoxybenzaldehyde]: the IC50 in assay [1] was 6.2 µM; in assay [2], 7.9 µM.

On to `COc1cc(/C=C/c2ccc3c(c2)CCCO3)cc(C=O)c1O` [compound 67, (E)-5-(2-(chroman-6-yl)vinyl)-2-hydroxy-3-methoxybenzaldehyde], for which the IC50 amounted to 1.2 µM in assay [1] and 1.7 µM in assay [2].

`O=Cc1cc(/C=C/c2ccc(OCC3CC3)cc2)cc(F)c1O` [compound 66, (E)-5-(4-(cyclopropylmethoxy)styryl)-3-fluoro-2-hydroxybenzaldehyde]: the IC50 in assay [1] came to 0.3 µM; in assay [2] it was 0.9 µM.

On to `COc1cc(/C=C/c2cccc(N3CCCC3)c2)cc(C=O)c1O` [compound 46, (E)-2-hydroxy-3-methoxy-5-(3-(pyrrolidin-1-yl)styryl)benzaldehyde], for which the figures for the IC50 in assay [1] and in assay [2] were 1 µM and 1.4 µM, respectively.

With `COCCOc1ccc(/C=C/c2cc(F)c(O)c(C=O)c2)cc1` [compound 55, (E)-3-fluoro-2-hydroxy-5-(4-(2-methoxyethoxy)styryl)benzaldehyde], the 50% inhibitory concentration (IC50) worked out at 4.1 µM in assay [1] and 3.6 µM in assay [2].

Values taken from US11345713B2, “Compounds as modulators of TLR2 signaling” (Neuropore Therapies, inc., priority 2018, dated 2022).
